This note sets out measurements from US6495594B2, “Biologically active analogs of discodermolide” (Harbor Branch Oceanographic Institution, Inc., priority 2000, dated 2002).

Assay [1] concerns A549 human adenocarcinoma. The assay can be described thus: In vitro proliferation of A549 cells (MTT). In kind it is cell-based. The procedure: (§1) Discodermolide and discodermolide analogs were analyzed as to their effects on proliferation of A549 human adenocarcinoma and P388 murine leukemia cell lines. P388 cells were obtained from Dr. R. Camalier, National Cancer Institute, Bethesda, MD, and A549 cells were obtained from American Type Culture Collection, Rockville, MD. All cell lines were maintained in tissue culture medium (TCM; Roswell Park Memorial Institute RPMI 1640 supplemented with 100 U/mL penicillin, […], 60 […], 18 mM HEPES, 0.05 mg/mL gentamicin (Life Technologies, Gaithersburg, MD) and 10% fetal bovine serum) and cultured in plastic tissue culture flasks at 37° C. in humidified air containing 5% CO2. Stock cultures of P388 cells were subcultured 1:20 in fresh TCM every 2 to 3 days. Stock cultures of A549 cells were subcultured 1:10 every 3 to 4 days. To assess the antiproliferative effects of agents against the cells, 200 μL cultures (96-well tissue culture plates, Nunc, Denmark) were established at 1 ×10^5 cells/mL in TCM or TCM containing the test agent at 0.03-5.0 μg/mL. After 48-h exposures, P388 cells were enumerated using 3-[4,5-dimethylthiazol-2-yl]-2,5-diphenyltetrazolium bromide (MTT) as described in the literature (M. C. Alley, et al., Cancer Res. 48:589, 1988). A549 cells were enumerated in the same manner after 72 hours exposure. The results were expressed as percent inhibition compared to the negative (no drug) control. Positive drug controls of varying dilutions of 5-fluorouracil and adriamycin (Sigma Chemical Co., St Louis, MO) were included to monitor drug sensitivity of the cell line.
(§2) To quantitate the effects on cell proliferation and resulting IC50 values, 75 μL of warm growth media containing 5 mg/mL MTT is added to each well, cultures returned to the incubator, and left undisturbed for 3 hours. To spectrophotometrically quantitate formation of reduced formazan, plates are centrifuged (500×g, 10 minutes), culture fluids removed by aspiration, and 200 μL of acidified isopropanol (2 mL concentrated HCl /liter isopropanol) added per well. The absorbance of the resulting solutions is measured in a plate reader (TECAN Spectra SLT; TECAN U.S., Research Triangle Park, N.C.) at 570 nm and a 650 nm reference filter. The absorbance of test wells is divided by the absorbance of drug-free wells, and the concentration of agent that results in 50% of the absorbance of untreated cultures (IC50) is determined by linear regression of logit-transformed data (D. J. Finney, Statistical Method in Biological Assay, third ed., pp. 316-348, Charles Griffin Co., London, 1978). A linear relationship between tumor cell number and formazan production has been routinely observed over the range of cell densities observed in these experiments. The two standard drug controls (indicated above) are included in each assay as a check to monitor the drug sensitivity of each of the cell lines and IC50 values are determined for each drug-cell combination.

For assay [2], the system named is P388 murine leukemia cell lines. The assay can be described thus: In vitro proliferation of P388 cells (MTT). In kind it is cell-based. The protocol:
as §1, §2

Assay [3] concerns A549 human adenocarcinoma tumor cells. The assay can be described thus: Microtubule bundling patterns in tumor cells by immunofluorescence. Format: cell-based. Also noted: key to Microtubule bundling in A549 cells: −: no effect; +/−: minimal or questionable effect; +: weak effect; ++: strong effect; +++: very strong effect equivalent to discodermolide. The settings on record: subjective rating versus discodermolide. The protocol:
Discodermolide and discodermolide analogs were evaluated as to their effects on the morphology of the microtubule network of cells using mouse anti-alpha-tubulin monoclonal antibody.
On day one, 7×10^4 adherent A549 human adenocarcinoma tumor cells were cultured in TCM overnight at 37° C. in 5% CO2 on 22 mm^2 cover slips in 6-well microtiter plates. On day two, TCM was removed and replaced with 10-1000 nM discodermolide or analog in TCM or TCM without drug (control) and incubated overnight at 37° C. in 5% CO2. On day three, TCM was removed and cells attached to cover slips were fixed with a 3.7% formaldehyde solution in Dulbecco's PBS for 10 minutes at room temperature. Cells were permeabilized with a 2% Triton X-100 solution, 2 mL per well, for 5 minutes at room temperature and washed twice in Dulbecco's PBS prior to staining.
To each well containing cells attached to cover slips a 2 mL volume of mouse anti- alpha-tubulin monoclonal antibody (Cat# T-5168, Sigma Chemical Co., St. Louis, Mo.) diluted 1:1000 in Dulbecco's phosphate buffered saline (D-PBS) was added and the cells incubated at room temperature for 45 minutes. Cover slips were rinsed once with D-PBS. A 2 mL volume of goat-anti-mouse-IgG-FITC conjugated antibody (Cat# T-5262, Sigma Chemical Co., St. Louis, Mo.) diluted 1:1000 in D-PBS was added and the cells incubated at room temperature for 45 minutes. Cover slips were rinsed once in D-PBS and DNA was stained with 0.02 mg/mL propidium iodide together with 0.1 mg/mL of ribonuclease A (RNAse) A in D-PBS at 37° C. for 30 minutes. Cover slips were rinsed three times with sterile distilled water, air-dried and mounted on slides with SlowFade™ antifade solution (Molecular Probes, Eugene, Oreg.) and observed under the microscope using epifluorescence illumination for the presence of abnormal aster and microtubule bundle formations.

The test system of assay [4] is purified bovine brain tubulin. The assay can be described thus: Tubulin polymerization (optical density at 350 nm). Format: biochemical. Further details: key to Purified tubulin polymerization by 10 μM / Purified tubulin polymerization at 10 μM: −: no effect; +/−: minimal or questionable effect; +: weak effect; ++: strong effect; +++: very strong effect equivalent to discodermolide. The settings on record: 10 μM compound, 1 mg/mL tubulin; for Purified tubulin polymerization, temperature at which polymerization commences: temperature ramp 4 to 35° C.; for Purified tubulin polymerization at 10 μM: Table 12. The protocol: Compounds were tested at 10 μM with 1 mg/mL tubulin. The temperature was varied during the course of the experiment as follows: the experiment was begun with an initial temperature of 4° C. and held for 1 minute; the temperature was then increased to 35° C. at a rate of 1° C./minute, held at 35° C. for 1 minute, decreased to 4° C. at a rate of 2° C/minute, and finally held at 4° C. for 14 minutes. The curves shown are for compounds: discodermolide (I); 2-desmethyldiscodermolide (II); 19-desaminocarbonyldiscodermolide (III); 2-epidiscodermolide (IV); and 3-deoxy-2A-discodermolide (VI).
Compounds were tested at 10 μM with 1 mg/mL tubulin. The temperature was varied during the course of the experiment as follows: the experiment was begun with an initial temperature of 4° C. and held for 1 minute; the temperature was then increased to 35° C. at a rate of 1° C./minute, held at 35° C. for 1 minute, decreased to 4° C. at a rate of 2° C./minute, and finally held at 4° C. for 14 minutes. The curves shown are for discodermolide (I); 8,21,23-hexahydrodiscodermolide (XII) and 7-deoxy-8,21,23-hexahydrodiscodermolide (XIII).
Polymerization of purified bovine brain tubulin (Cytoskeleton Inc., Denver, Colo.) was followed by changes in the optical density of tubulin solutions at 350 nm in a Hitachi U-3010 spectrophotometer equipped with a SPR-10 electronic thermostatted cell holder. Stock solutions of tubulin were diluted on ice in G-PEM buffer (1 mM GTP, 80 mM PIPES, 1 mM EGTA, 0.5 mM magnesium chloride; pH 6.8) to a final concentration of 1 mg/mL. The instrument was zeroed on this solution at 4° C. Discodermolide, and its analogs, were then added to the tubulin solution to a final concentration of 10 μM, quickly mixed, and the absorbance monitored over a period of 61 minutes. Within this time the temperature of the thermoelectric cell holder was held at 4° C. for 1 minute, increased to 35° C. at a rate of 1° C./minute, reduced back to 4° C. at a rate of 2° C./minute, and held at 4° C. for an additional 14 minutes.

Setting [5] is: 72 hours exposure, value in parentheses.
Where [6] appears, read: 48-h exposure, value in parentheses.

Some results are limits rather than exact numbers.

What is called IC50 is the point on the concentration scale where inhibition reaches its midpoint.

On to `C=CC=CC(C)C(OC(N)=O)C(C)C(O)C(C)CC(C)=CC(C)C(O)C(C)C=CC(O)CC1OC(=O)C(C)=CC1C` (centres unmarked) [3-Deoxy-2Δ-discodermolide (VI), 3-deoxy-2Δ-discodermolide], for which the “IC50 A549 cells” value in assay [1] (72 hours exposure) was 0.0125 µg/mL. The half-inhibitory concentration (IC50) in assay [1] (setting [5]) turned out to be 21.7 nM; in assay [2] (setting [6]), 33.6 nM. Also, the “IC50 P388 cells” value in assay [2] (48-h exposure) is 0.02 µg/mL. The “Microtubule bundling in A549 cells” value in assay [3] (Table 12) was “+++”. For the same molecule, in assay [4], the “Purified tubulin polymerization, temperature at which polymerization commences” value was 21 °C. The “Purified tubulin polymerization at 10 μM” value in assay [4] (subjective rating) was “+”.
As to `C=CC=CC(C)C(OC(N)=O)C(C)C(O)C(C)CC(C)=CC(C)C(OC(C)=O)C(C)C=CC(O)CC1OC(=O)C(C)=CC1C` (centres unmarked) [3-Deoxy-2Δ-discodermolide-11-acetate (X), 3-deoxy-2Δ-discodermolide-11-acetate], the “IC50 A549 cells” value in assay [1] (72 hours exposure) was 1.93 µg/mL. Also, the IC50 in assay [1] (setting [5]) was found to be 3130 nM; in assay [2] (setting [6]), 519 nM. For the same molecule, in assay [2] (48-h exposure), the “IC50 P388 cells” value came to 0.32 µg/mL. Moreover, in assay [3] (Table 12), the “Microtubule bundling in A549 cells” value is recorded as “−”. The “Purified tubulin polymerization at 10 μM” value in assay [4] (subjective rating) is given as “−”.
Take `C=CC=CC(C)C(OC(N)=O)C(C)C(OC(C)=O)C(C)CC(C)=CC(C)C(OC(C)=O)C(C)C=CC(CC1OC(=O)C(C)=CC1C)OC(C)=O` (centres unmarked) [3-deoxy-2Δ-discodermolide-7,11,17-triacetate]: in assay [1] (72 hours exposure), the “IC50 A549 cells” value is greater than 5 µg/mL. The values for the 50% inhibitory concentration (IC50) in assay [1] (setting [5]) and in assay [2] (setting [6]) were greater than 7130 nM and 7080 nM, respectively. Further, the “IC50 P388 cells” value in assay [2] (48-h exposure) amounted to 4.96 µg/mL. In addition, in assay [3] (Table 12), the “Microtubule bundling in A549 cells” value is recorded as “−”. The “Purified tubulin polymerization at 10 μM” value in assay [4] (subjective rating) is “−”.
Turning to `C=CC=CC(C)C(OC(N)=O)C(C)C(OC(C)=O)C(C)CC(C)=CC(C)C(OC(C)=O)C(C)C=CC(O)CC1OC(=O)C(C)=CC1C` (centres unmarked) [3-deoxy-2Δ-discodermolide-11,17-diacetate], the “IC50 A549 cells” value in assay [1] (72 hours exposure) was greater than 5 µg/mL. Besides, the IC50 in assay [1] (setting [5]) and in assay [2] (setting [6]) was greater than 7590 nM each time. Also, the “IC50 P388 cells” value in assay [2] (48-h exposure) is greater than 5 µg/mL. The “Microtubule bundling in A549 cells” value in assay [3] (Table 12) was “−”. Moreover, the “Purified tubulin polymerization at 10 μM” value in assay [4] (subjective rating) is recorded as “−”.
`C=CC=CC(C)C(OC(N)=O)C(C)C(OC(C)=O)C(C)CC(C)=CC(C)C(O)C(C)C=CC(O)CC1OC(=O)C(C)=CC1C` (centres unmarked) [3-deoxy-2Δ-discodermolide-17-acetate]: the “IC50 A549 cells” value in assay [1] (72 hours exposure) is greater than 5 µg/mL. The concentration for half-maximal inhibition (IC50) in assay [1] (setting [5]) and in assay [2] (setting [6]) was greater than 8100 nM throughout. Besides, the “IC50 P388 cells” value in assay [2] (48-h exposure) was greater than 5 µg/mL. In assay [3] (Table 12), the “Microtubule bundling in A549 cells” value is given as “−”. Also, the “Purified tubulin polymerization at 10 μM” value in assay [4] (subjective rating) is recorded as “−”.
`C=C/C=C\[C@H](C)[C@H](OC(N)=O)[C@@H](C)[C@H](O)[C@@H](C)C/C(C)=C\[C@H](C)[C@@H](O)[C@@H](C)/C=C\[C@@H](O)C[C@@H]1OC(=O)[C@H](C)[C@@H](O)[C@H]1C` [Discodermolide (I), discodermolide]: the IC50 was 0.008 µg/mL in assay [1] (Homo sapiens, A549, 72 hours exposure); 13.5 nM in assay [1] (Homo sapiens, A549, 72 hours exposure, value in parentheses); 0.021 µg/mL in assay [2] (Mus musculus, P388, 48-h exposure); 35 nM in assay [2] (Mus musculus, P388, 48-h exposure, value in parentheses). The “Microtubule bundling in A549 cells” value in assay [3] (Table 11) is “+++”. For the same molecule, the “Purified tubulin polymerization, temperature at which polymerization commences” value in assay [4] is 4 °C. For the same molecule, in assay [4] (subjective rating, Table 11), the “Purified tubulin polymerization by 10 μM” value is recorded as “+++”.
On to “Methyldiscodermolate [Methyldiscodermolate (V)]”, for which, in assay [1] (72 hours exposure), the “IC50 A549 cells” value was 0.045 µg/mL. For the same molecule, the IC50 in assay [1] (setting [5]) turned out to be 74 nM; in assay [2] (setting [6]), 65.8 nM. Moreover, in assay [2] (48-h exposure), the “IC50 P388 cells” value is 0.04 µg/mL. The “Microtubule bundling in A549 cells” value in assay [3] (Table 11) is “+”. Moreover, in assay [4], the “Purified tubulin polymerization, temperature at which polymerization commences” value is “(12° C.)”.
